Assay in all cases: NCI-60 cell line screen, 48 h
Test [1] has as its system MALME-3M melanoma.
Test [2] has as its system NCI-H226 lung.
Test [3] relates to NCI-H23 lung.
The test system of test [4] is NCI-H460 lung.
For test [5], the system named is OVCAR-3 ovarian.
In test [6] the test system is OVCAR-5 ovarian.
For test [7], the system named is SF-539 CNS.
For test [8], the system named is SW-620 colon.
In test [9] the test system is SK-MEL-5 melanoma.

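Step 1: Grow cells in 96-well plates. Step 2: Expose to compound for 48 hours at 5 concentrations. Step 3: Interpolate endpoints linearly; if unreached, use highest concentration. GI50 marks 50% less growth. The concentration for full growth arrest is given as TGI.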 Bounds are passed on as bounds.

For `O=c1[nH]nc2ccccc2c1Cl`, the TGI in test [1] is 31 µM; in test [2], 52.8 µM; in test [3], 35.9 µM; in [4], 46.2 µM; in [5] it was 6.21 µM; in test [6] it was 33.9 µM. Also, the TGI in [7] is 29.9 µM; in test [8], 34.2 µM.
As to `CN(C)CCNC(=O)c1ccc(C(=O)NCCN(C)C)c2nc3ccccc3cc12`, the TGI in test [1] amounted to 2.97 µM; in test [2] it was 3.6 µM; in test [3] it was 3.8 µM; in test [4], 2.79 µM; in test [5] it was 9.91 µM; in [6], 3.78 µM. The TGI in test [7] is 2.01 µM; in [9], 4.34 µM; in [8], 9.56 µM.
Take `Nc1ccn(CCO)c(=O)n1`: the TGI in test [1], in test [2], in [4], in test [5], in [6] and in test [7] was over 100 µM in each case. Besides, the TGI in test [9] and in [8] was over 100 µM in each case.
For `CC(=O)Nc1ccc(/C=N\N2C(=O)c3ccccc3C2=O)cc1`, the TGI in test [1], in [2], in test [3], in test [4], in [5] and in test [6] was over 100 µM each time. In addition, the TGI in [7], in [9] and in [8] was over 100 µM throughout.
Turning to `OCC(O)C(OC1OC(CO)C(O)C(O)C1O)c1nn(-c2ccccc2)c2nc3cc(Cl)c(Cl)cc3cc12` (centres undefined), the TGI in test [1], in test [3], in test [4], in [5], in test [6] and in test [7] was over 100 µM throughout.
As for `NC(=NC1CCCCCCC1)c1ccc(N2CCN(c3ccc(C(N)=NC4CCCCCCC4)cc3)CC2)cc1`, the GI50 in test [2] is 11.5 µM; in test [3], 6.8 µM; in [4], 11.9 µM; in test [5], 1.73 µM; in test [6], 14.9 µM; in test [9] it was 1.72 µM. Further, the GI50 in test [8] is 8.91 µM. Moreover, the TGI in test [2] was 39.1 µM; in [3], 45.8 µM; in test [4], over 100 µM; in [5] it was 13.8 µM; in test [6] it was 39 µM; in [9] it was 7.66 µM. For the same compound, the TGI in test [8] was found to be 38.5 µM.
Regarding `O=c1c2cccc3cccc(c4oc5c6cccc7cccc(c(=O)c5c14)c76)c32`, the TGI in [1] was 17.9 µM; in test [2] it was over 31.6 µM; in test [3], 20.1 µM; in test [4], 18.1 µM; in test [5], 17 µM; in [6], over 31.6 µM. In addition, the TGI in test [7] came out at 31.5 µM; in [9] it was 22.2 µM; in test [8], 17 µM.
Regarding `CCCCCCCCC(=O)N(C)C1C2CN3CCC(O2)C13` (centres undefined), the TGI in test [1], in test [2], in test [3], in test [4], in test [5] and in test [6] was over 100 µM each time. The TGI in test [7], in [9] and in [8] was over 100 µM each time.
On to `N#C/C(=C1\NN=C(N)C(c2ccc(Cl)cc2)=C1O)c1ccc(Cl)cc1`, for which the TGI in test [1], in [2], in test [3], in test [4], in [5] and in test [6] was over 100 µM in each case. Moreover, the TGI in test [7] and in test [8] was over 100 µM throughout.
As to `Cc1cc(C)c2c(c1)Nc1ccccc1P2c1ccccc1` (centres undefined), the TGI in test [1] is 71.8 µM; in test [3], 83.8 µM; in test [4], 50.8 µM; in test [5], 61 µM; in test [8], over 100 µM.
`COc1ccc(C2=NN(C(=O)COc3ccc(Cl)cc3)C(O)(c3ccc(Cl)cc3)C2)cc1` (centres undefined): the TGI in test [1], in test [2], in [3], in test [4], in test [5] and in test [6] was over 100 µM throughout. In addition, the TGI in [7] and in test [8] was over 100 µM each time.
On to `CCOC(=O)C1=C(NNC(=O)Cc2ccccc2)CSC1=Nc1ccccc1`, for which the TGI in test [1], in test [2], in [3], in test [4], in [5] and in [6] was over 100 µM in each case. Moreover, the TGI in test [7], in test [9] and in test [8] was over 100 µM each time.
In the case of `Fc1cccc2cc3ccc4cccc5ccc(c12)c3c45`, the TGI in test [1], in [2], in [3], in [5], in [6] and in test [7] was over 100 µM throughout. Besides, the TGI in test [9] and in test [8] was over 100 µM throughout.
Turning to `Cc1cccc(NC(=O)c2cc3cc(N=Nc4ccccc4Cl)ccc3oc2=O)c1`, the TGI is over 100 µM in [1]; 56.2 µM in test [2]; 59.5 µM in [3]; over 100 µM in [4]; over 100 µM in test [5]; 56.8 µM in test [6]. The TGI is 94.9 µM in test [7], 47.1 µM in test [9] and over 100 µM in [8].
Take `Cn1ccc2c(c1=O)C(=O)c1nccc3c1c-2nc1ccccc13`: the GI50 in test [1] was 2.2 µM; in test [2], 12.5 µM; in test [3] it was 1.27 µM; in [4], 1.36 µM; in test [6], 1.92 µM; in test [7], 1.83 µM. Moreover, the figures for the GI50 in [9] and in [8] were 1.51 µM and 1.28 µM, respectively. The TGI in test [1] was found to be 4.09 µM; in test [2] it was 26.4 µM; in [3] it was 2.8 µM; in test [4] it was 3.09 µM; in [6] it was 3.46 µM; in test [7], 3.42 µM. Besides, the results for the TGI in test [9] and in test [8] were 2.84 µM and 3.17 µM, respectively.
For `CC1CC2C(=O)N(c3ccccc3)C(=O)C2c2c1c1ccccc1n2Cc1ccccc1` (centres undefined), the TGI in [1], in test [2], in test [4], in test [5], in test [6] and in test [7] was over 100 µM in each case. For the same compound, the TGI in [9] and in [8] was over 100 µM throughout.
On to `NNC(=O)CCC(=O)Nc1cc(Cl)c(Cl)cc1Cl`, for which the TGI in [1], in [2], in [3], in test [4], in test [5] and in test [6] was over 100 µM in each case. The TGI in test [7], in test [9] and in test [8] was over 100 µM in each case.
As for `COCC1N=C(c2cc(OC)c(OC)c(OC)c2-c2cc3c(cc2C2OCCCO2)OCO3)O[C@H]1c1ccccc1` (some centres undefined), the TGI in [1], in test [2], in test [3], in test [4], in test [5] and in [6] was over 100 µM throughout. Also, the TGI in test [7], in test [9] and in [8] was over 100 µM in each case.
As to `O=C(O)CCSCCCN1C(=O)c2ccccc2C1=O`, the TGI in test [1], in [2], in [3], in test [5], in test [6] and in test [7] was over 100 µM in each case. In addition, the TGI in test [9] and in test [8] was over 100 µM in each case.
On to `O=C(/C=C/c1ccc(Cl)c(Cl)c1)c1ccc(F)cc1`, for which the TGI in test [1] turned out to be 83.4 µM; in test [2], 92.6 µM; in test [3] it was 83.2 µM; in [4], 54.9 µM; in test [5], 38.1 µM; in test [6], 55.2 µM. For the same compound, the TGI in [7] is 38.2 µM; in [9], 41 µM; in test [8], 4.08 µM.
As for `CS(=O)(=O)OCCn1cnc2nc(NC(=O)c3ccccc3)[nH]c(=O)c21`, the TGI in [1], in [2], in test [4], in test [5], in test [6] and in [7] was over 100 µM in each case. Besides, the TGI in test [9] and in test [8] was over 100 µM in each case.
As for `Nc1c(Br)c(=O)[nH]c(=O)n1COCCO`, the TGI in test [1], in test [3], in test [4], in [5], in test [6] and in test [7] was over 100 µM throughout. Further, the TGI in test [9] and in [8] was over 100 µM each time.

Values taken from PubChem BioAssay (NCI).
